These results are taken from patent publication US11135234B2, “Effective aminoglycoside antibiotic for multidrug-resistant bacteria” (MICROBIAL CHEMISTRY RESEARCH FOUNDATION, priority 2015, dated 2021).

In brackets after ≈: the same amount, converted by molar mass.

Test [1] concerns S. aureus RN4220. Briefly: MIC, agar plate dilution method, S. aureus RN4220. The format is cell-based, Staphylococcus aureus. Conditions: for MIC: Staphylococcus aureus, RN4220, S. aureus RN4220, Sensitive bacterium, read-out: minimal inhibitory concentration (MIC); for minimal inhibitory concentration (MIC): S. aureus RN4220, Sensitive bacterium. A digest of the protocol:
(§1)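 MIC values, expressed in μg/mL, come from an agar plate dilution assay run as the Japan Society of Chemotherapy describes.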

Test [2] has as its system S. aureus RN4220/pMS520. Briefly: MIC, agar plate dilution method, S. aureus RN4220/pMS520. It is filed as cell-based, Staphylococcus aureus. Conditions: for MIC: Staphylococcus aureus, MRSA, read-out: minimal inhibitory concentration (MIC), S. aureus RN4220/pMS520, MRSA; for minimal inhibitory concentration (MIC): S. aureus RN4220/pMS520, MRSA. An outline of the steps:
as §1

Test [3] concerns S. aureus MF490. Briefly: MIC, agar plate dilution method, S. aureus MF490. It is filed as cell-based, Staphylococcus aureus. The settings on record: for MIC: Staphylococcus aureus, MRSA, read-out: minimal inhibitory concentration (MIC); for minimal inhibitory concentration (MIC): S. aureus MF490, MRSA. A digest of the protocol:
as §1

Test [4] has as its system E. faecium ATCC19434. Briefly: MIC, agar plate dilution method, E. faecium ATCC19434. It is filed as cell-based, Enterococcus faecium. The settings on record: for MIC: Enterococcus faecium, ATCC19434, E. faecium ATCC19434, read-out: minimal inhibitory concentration (MIC); for minimal inhibitory concentration (MIC): E. faecium ATCC19434. A digest of the protocol: as §1
Test [5] deals with E. coli JM109/pMW218. Briefly: MIC, agar plate dilution method, E. coli JM109/pMW218. It is filed as cell-based, Escherichia coli. The settings on record: for MIC: Escherichia coli, JM109/PMW218, E. coli JM109/pMW218, Sensitive bacterium, read-out: minimal inhibitory concentration (MIC); for minimal inhibitory concentration (MIC): E. coli JM109/pMW218, Sensitive bacterium. A digest of the protocol:
as §1

Test [6] deals with K. pneumoniae ATCC BAA-1705. Briefly: MIC, agar plate dilution method, K. pneumoniae ATCC BAA-1705. It is filed as cell-based, Klebsiella pneumoniae. Conditions: for MIC: Klebsiella pneumoniae, ATCCBAA1705, K. pneumoniae ATCC BAA-1705, KPC-producing strain, read-out: minimal inhibitory concentration (MIC); for minimal inhibitory concentration (MIC): K. pneumoniae ATCC BAA-1705, KPC-producing strain. A digest of the protocol:
as §1

Test [7] has as its system K. pneumoniae ATCC BAA-2146. Briefly: MIC, agar plate dilution method, K. pneumoniae ATCC BAA-2146. The format is cell-based, Klebsiella pneumoniae. Conditions: for MIC: Klebsiella pneumoniae, ATCCBAA2146, K. pneumoniae ATCC BAA-2146, NDM-producing strain, read-out: minimal inhibitory concentration (MIC); for minimal inhibitory concentration (MIC): K. pneumoniae ATCC BAA-2146, NDM-producing strain. A digest of the protocol:
as §1

The subject of test [8] is A. baumannii ATCC BAA-1710. Briefly: MIC, agar plate dilution method, A. baumannii ATCC BAA-1710. The format is cell-based, Acinetobacter baumannii. The settings on record: for MIC: Acinetobacter baumannii, ATCCBAA1710, A. baumannii ATCC BAA-1710, MDRA, read-out: minimal inhibitory concentration (MIC); for minimal inhibitory concentration (MIC): A. baumannii ATCC BAA-1710, MDRA. A digest of the protocol: as §1

Test [9] concerns S. marcescens TH-0447. Briefly: MIC, agar plate dilution method, S. marcescens TH-0447. The format is cell-based, Serratia marcescens. The settings on record: for MIC: Serratia marcescens, TH0447, S. marcescens TH-0447, AMK-resistant, read-out: minimal inhibitory concentration (MIC); for minimal inhibitory concentration (MIC): S. marcescens TH-0447, AMK-resistant. An outline of the steps:
as §1

Test [10] relates to S. marcescens GN6944. Briefly: MIC, agar plate dilution method, S. marcescens GN6944. The format is cell-based, Serratia marcescens. Conditions: S. marcescens GN6944, GM-resistant; for MIC: Serratia marcescens, read-out: minimal inhibitory concentration (MIC). An outline of the steps: as §1
Test [11] deals with P. aeruginosa PAO1. Briefly: MIC, agar plate dilution method, P. aeruginosa PAO1. The settings on record: for MIC: Pseudomonas aeruginosa, PAO1, P. aeruginosa PAO1, Sensitive bacterium, read-out: minimal inhibitory concentration (MIC); for minimal inhibitory concentration (MIC): P. aeruginosa PAO1, Sensitive bacterium. The format is cell-based, Pseudomonas aeruginosa. An outline of the steps:
as §1

Test [12] relates to P. aeruginosa PAO1/GN315. Briefly: MIC, agar plate dilution method, P. aeruginosa PAO1/GN315. The format is cell-based, Pseudomonas aeruginosa. The settings on record: for MIC: Pseudomonas aeruginosa, read-out: minimal inhibitory concentration (MIC), P. aeruginosa PAO1/GN315, AMK-resistant; for minimal inhibitory concentration (MIC): P. aeruginosa PAO1/GN315, AMK-resistant. A digest of the protocol: as §1

Test [13] concerns P. aeruginosa MSC17707. Briefly: MIC, agar plate dilution method, P. aeruginosa MSC17707. It is filed as cell-based, Pseudomonas aeruginosa. Conditions: for minimal inhibitory concentration (MIC): P. aeruginosa MSC17707, AMK-resistant. An outline of the steps:
as §1

The subject of test [14] is P. aeruginosa MSC01035. Briefly: MIC, agar plate dilution method, P. aeruginosa MSC01035. Conditions: P. aeruginosa MSC01035, ABK-resistant; for MIC: Pseudomonas aeruginosa, read-out: minimal inhibitory concentration (MIC). The format is cell-based, Pseudomonas aeruginosa. A digest of the protocol: as §1

With `CNC1C(O[C@H]2OC(CO)[C@@H](NC(=O)CN)[C@H](O)C2O)O[C@H]2CC(N)[C@@H](O[C@@H]3C(N)C[C@@H](N)C(O)[C@H]3O)OC2C1O` (single isomer, unassigned) [Compound V1-i, 5-epi-4″-N-glycylapramycin], the MIC in test [1] was found to be 2 µg/mL (≈ 3.35 µM); in test [2], 2 µg/mL (≈ 3.35 µM); in test [3], 8 µg/mL (≈ 13.4 µM); in test [4], 16 µg/mL (≈ 26.8 µM); in [5], 1 µg/mL (≈ 1.68 µM); in test [6], 2 µg/mL (≈ 3.35 µM). Besides, the MIC in [7] was found to be 1 µg/mL (≈ 1.68 µM); in test [8], 4 µg/mL (≈ 6.7 µM); in [9], 8 µg/mL (≈ 13.4 µM); in test [10], 8 µg/mL (≈ 13.4 µM); in test [11], 2 µg/mL (≈ 3.35 µM); in test [12], 4 µg/mL (≈ 6.7 µM). In test [14], the MIC was determined as 4 µg/mL (≈ 6.7 µM). The “minimal inhibitory concentration (MIC)” value in test [13] came out at 2 µg/mL (≈ 3.35 µM).

On to `CNC1C(O[C@H]2OC(CO)[C@@H](NC(CN)CN)[C@H](O)C2O)O[C@H]2CC(N)[C@@H](O[C@H]3CC[C@H](N)CC3N)OC2C1O` (some centres unmarked) [Compound T2-d, 4″-N-(1,3-diaminopropan-2-yl)-5,6-dideoxyapramycin], for which the MIC was 2 µg/mL (≈ 3.45 µM) in [1]; 1 µg/mL (≈ 1.73 µM) in [2]; 4 µg/mL (≈ 6.9 µM) in test [3]; 4 µg/mL (≈ 6.9 µM) in test [4]; 1 µg/mL (≈ 1.73 µM) in test [5]; 2 µg/mL (≈ 3.45 µM) in test [6]. The MIC was 2 µg/mL (≈ 3.45 µM) in [7]; 8 µg/mL (≈ 13.8 µM) in [8]; 8 µg/mL (≈ 13.8 µM) in test [9]; 8 µg/mL (≈ 13.8 µM) in [10]; 4 µg/mL (≈ 6.9 µM) in test [11]; 4 µg/mL (≈ 6.9 µM) in test [12]. Further, the MIC is 8 µg/mL (≈ 13.8 µM) in test [13] (Pseudomonas aeruginosa, MSC17707, P. aeruginosa MSC17707, AMK-resistant, read-out: minimal inhibitory concentration (MIC)) and 8 µg/mL (≈ 13.8 µM) in test [14].

For `CNC1C(OC2OC(CO)C(N)CC2O)OC2CC(N)C(OC3C(N)CC(N)C(O)C3F)OC2C1O` (stereo not drawn) [Compound M10, 5,3″-dideoxy-5-epi-5-fluoroapramycin], the “minimal inhibitory concentration (MIC)” value in [1] was determined as 2 µg/mL (≈ 3.81 µM); in test [2], 2 µg/mL (≈ 3.81 µM); in test [3], 8 µg/mL (≈ 15.2 µM); in test [4] it was 8 µg/mL (≈ 15.2 µM); in test [5], 0.5 µg/mL (≈ 0.951 µM); in test [6], 1 µg/mL (≈ 1.9 µM). For the same compound, the “minimal inhibitory concentration (MIC)” value in test [7] worked out at 1 µg/mL (≈ 1.9 µM); in test [8] it was 8 µg/mL (≈ 15.2 µM); in [9] it was 8 µg/mL (≈ 15.2 µM); in [10], 4 µg/mL (≈ 7.61 µM); in test [11] it was 4 µg/mL (≈ 7.61 µM); in test [12], 4 µg/mL (≈ 7.61 µM). Further, the “minimal inhibitory concentration (MIC)” value in test [13] and in test [14] was 4 µg/mL (≈ 7.61 µM) each time.

Turning to `CN[C@@H]1[C@@H](O[C@H]2O[C@H](C)[C@@H](N)C[C@H]2O)O[C@H]2C[C@@H](N)[C@@H](O[C@H]3[C@H](O)[C@@H](O)[C@H](N)C[C@@H]3N)O[C@@H]2[C@@H]1O` [Compound K4, 3″,6″-dideoxyapramycin], the “minimal inhibitory concentration (MIC)” value turned out to be 2 µg/mL (≈ 3.94 µM) in test [1]; 2 µg/mL (≈ 3.94 µM) in test [2]; 8 µg/mL (≈ 15.8 µM) in test [3]; 8 µg/mL (≈ 15.8 µM) in [4]; 1 µg/mL (≈ 1.97 µM) in [5]; 2 µg/mL (≈ 3.94 µM) in test [6]. Also, the “minimal inhibitory concentration (MIC)” value worked out at 1 µg/mL (≈ 1.97 µM) in test [7]; 16 µg/mL (≈ 31.5 µM) in [8]; 8 µg/mL (≈ 15.8 µM) in [9]; 4 µg/mL (≈ 7.88 µM) in [10]; 8 µg/mL (≈ 15.8 µM) in test [11]; 8 µg/mL (≈ 15.8 µM) in test [12]. Besides, the “minimal inhibitory concentration (MIC)” value in test [13] and in test [14] was 16 µg/mL (≈ 31.5 µM) in each case.
